From patent publication US5254801A, “Heterologous dominant conditional lethal gene which is a phosphonate monoester hydrolase and use thereof in plants” (Monsanto Company, priority 1990, dated 1993)

Assays:
PG2982 = test: Growth on glyceryl glyphosate as sole phosphate source; format: cell-based, Pseudomonas caryophilli; conditions: strain PG2982; 0.2 mM in DF minimal medium
Method: Bacteria capable of degrading glyphosate are known (Hallas et al., 1988; Malik et al., 1989; and Moore et al., 1983; Heitkamp et al., 1990). Five of these bacteria (PG2482, LBAA, T10, T12 and CP4) and four strains of E. coli were screened for the rapid degradation of glyceryl glyphosate into inorganic phosphate. The bacteria were inoculated into 2 ml Dworkin-Foster(DF) minimal medium containing glucose, sodium gluconate and potassium citrate (each 0.1%) as carbon source and containing 0.2 mM glyceryl glyphosate as a phosphate source. The Dworkin-Foster minimal medium was made by combining 1 liter sterile H2 O with 1 ml each of A, B, C, E and F, 10 ml D, C-sources to final concentration of 0.1% each and P-source to 0.2 mM.
(§1) Bacteria which grew in this medium using glyceryl glyphosate as a sole phosphate source had the ability to cleave both the ester and the phosphonate bond to release the free phosphate. For these bacteria to be useful in the present invention, the first step in the mineralization of glyceryl glyphosate needed is the hydrolysis of the phosphonate ester. […] After a three hour incubation period, the cells were pelleted in a microfuge and the supernatant injected onto an HPLC anion exchange column and glyphosate analyzed as described above. […] The pellet extract was then analyzed for glyphosate product as described above. […]

PG2982 crude extract = test: In vitro radioactive hydrolysis assay in crude extracts; format: biochemical, Pseudomonas caryophilli; conditions: strain PG2982
Source text: The enzymatic reaction can be assayed using labelled (3-^14 C-) glyceryl glyphosate as a substrate and following the conversion to (3-^14 C-)glyphosate as a product using a high pressure liquid chromatography system with a radioactive detector. This assay is the most specific for the phosphonate monoester hydrolase enzymes useful for conditional cell lethality. An enzyme assay consists of 40,000 cpm of labelled (3-^14 C-) glyceryl glyphosate (obtained from NEN Biochemicals), the PEH sample in buffer and buffer to 100 μl final volume. The assay buffer is 10 mM Bis-Tris propane, pH 9.0, plus 100 mM KCl. The reaction is run for 1 hour at 30° C. and then stopped by the addition of 100 μl "quench" which is 100 mM sodium acetate, pH 5.5, in ethanol. […] The radioactivity of the peaks is measured and integrated by a post-column detector. […]
as §1, with “phosphate.” for “phosphate. For these bacteria to be useful in the present invention, the first step in the mineralization of glyceryl glyphosate needed is the hydrolysis of the phosphonate ester.”

Question: How did the “Glyceryl Glyphosate as Phosphate Source” value (PG2982) turn out when `O=C(O)CNCP(=O)(O)OCC(O)CO` (centres unmarked) [glyceryl glyphosate, glycine, N-([hydroxy (2,3 dihydroxy propoxy)phosphonyl]methyl)] was run?
Answer: Its value is “Yes”.

Question: And the “Hydrolysis of Glyceryl Glyphosate into Glyphosate in Crude Extracts” value (PG2982 crude extract)?
Answer: The value was “Yes”.
